The values that follow come from PMC6982702, “Extensive Structure Modification on Luteolin-Cinnamic Acid Conjugates Leading to BACE1 Inhibitors with Optimal Pharmacological Properties” (Molecules, 2019).

One data set has as its target T1, BACE1 (Homo sapiens, UniProt P56817).
T1 construct: purchased PanVera Co. (Invitrogen, USA)
Kind of data set: In vitro BACE1 FRET enzyme assay. The format is biochemical. Particulars: BACE1 FRET assay; for inhibition at 10 µM: 10 μM compound, read-out: Inhibition Rate at 10 μM (%). As for the experimental part: The BACE1 FRET assay kit was purchased from the PanVera Co. (Invitrogen, USA). The assay was carried out according to the supplied manual with modifications. […] The fluorescence intensity was measured with a TECAN infinite 200 microplate reader for 60 min at 25 °C in the dark. […] The percent inhibition (%) was obtained by the following equation: Inhibition % = (1 −SS/SC) × 100%, where SC is the slope of fluorescence change of the control (enzyme, buffer, and substrate) during 60 min, and SS is the slope of fluorescence change of the tested samples (enzyme, sample solution, and substrate) during 60 min of measurement. IC50 values were calculated from the nonlinear curve fitting of percentage inhibition against inhibitor concentration using Prism 3.0 software (GraphPad Software, San Diego, CA, USA).

Another data set is described as follows: MTT cytotoxicity assay. The format is cell-based. Particulars: human, 24 h exposure. As for the experimental part: It is crucial for the BACE1 inhibitors to exert their activities at sub-toxic concentration, and thus their cytotoxicity was assessed in HEK293 cells by 3-[4,5-dimethylthiazol-2-yl]-2,5-diphenyl-tetrazolium bromide (MTT) assays (Table 5). […] Unfortunately, there was no obvious relationship between the structures and their cytotoxicity.
The cytotoxicity was examined by using 3-[4,5-dimethylthiazol-2-yl]-2,5-diphenyl-tetrazolium bromide (MTT) assay. HEK293T cells were seeded with complete DMEM into 96-well plates ([…], 100 µL/well), incubated at 37 °C in a humidified atmosphere with 5% CO2 for 24 h. All the compounds were diluted with the phenol red-free DMEM at a specific concentration. After 24 h of exposure to different concentrations of compound, the supernatant was removed and then 20% (v/v) MTT (5 mg/mL) diluted with fresh culture medium was added into each well and incubated for 4 h. Cells were lysed with 100 μL dimethyl sulfoxide (DMSO) and shaken for 10 min at room temperature. The absorbance in each well was detected at a wavelength of 490 nm using a Universal Microplate Reader (ELX 800 lv, BIO-TEK Instruments, Inc., Winooski, VT, USA).
(Formazan colour is commonly taken as a measure of viable cells.)

Setting [1] is: HEK293 cells (method text: HEK293T).

SMILES strings stand for the structures.

T1 sequence (P56817 46-501): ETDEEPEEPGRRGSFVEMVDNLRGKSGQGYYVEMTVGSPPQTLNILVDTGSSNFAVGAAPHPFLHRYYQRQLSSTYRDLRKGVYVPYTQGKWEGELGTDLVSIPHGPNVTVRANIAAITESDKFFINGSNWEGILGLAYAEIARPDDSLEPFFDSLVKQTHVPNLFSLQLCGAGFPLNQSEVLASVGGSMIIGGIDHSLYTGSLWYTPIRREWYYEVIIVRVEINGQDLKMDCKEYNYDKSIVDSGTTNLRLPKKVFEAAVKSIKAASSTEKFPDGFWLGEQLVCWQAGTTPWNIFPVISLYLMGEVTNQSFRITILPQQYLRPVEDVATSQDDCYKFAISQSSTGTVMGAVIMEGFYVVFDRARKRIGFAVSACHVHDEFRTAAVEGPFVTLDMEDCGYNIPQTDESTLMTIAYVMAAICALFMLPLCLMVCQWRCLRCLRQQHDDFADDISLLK

As usually defined, the inhibition is the change of the read-out against control, counted positive when it falls. As for `CC(=O)Oc1ccc(/C=C/C(=O)Oc2cccc(-c3cc(=O)c4c(O)cc(O)cc4o3)c2)cc1` [Compound 4a], the inhibition at 10 µM at BACE1 worked out at 23.9 ± 2.95%.

Take `O=C(/C=C/c1ccc(O)cc1)Oc1cccc(-c2cc(=O)c3c(O)cc(O)cc3o2)c1` [Compound 4b]: the inhibition at 10 µM on BACE1 is 14.8 ± 7.35%.

For the compound `CC(=O)Oc1ccc(/C=C/C(=O)OCCOc2cccc(-c3cc(=O)c4c(O)cc(O)cc4o3)c2)cc1` [Compound 4c], the inhibition at 10 µM on BACE1 turned out to be 31.8 ± 5.25%.

As for `O=C(/C=C/c1ccc(O)cc1)OCCOc1cccc(-c2cc(=O)c3c(O)cc(O)cc3o2)c1` [Compound 4d], the inhibition at 10 µM at BACE1 was found to be 39.6 ± 12.5%.

For `CC(=O)Oc1ccc(/C=C/C(=O)Oc2ccc(-c3cc(=O)c4c(O)cc(O)cc4o3)cc2)cc1` [Compound 4e], the inhibition at 10 µM at BACE1 came to 1.9 ± 10.3%.

For `O=C(/C=C/c1ccc(O)cc1)Oc1ccc(-c2cc(=O)c3c(O)cc(O)cc3o2)cc1` [Compound 4f], the inhibition at 10 µM on BACE1 worked out at 29.4 ± 5.5%.

Consider `CC(=O)Oc1ccc(/C=C/C(=O)OCCOc2ccc(-c3cc(=O)c4c(O)cc(O)cc4o3)cc2)cc1` [Compound 4g], for which, on BACE1, the inhibition at 10 µM amounted to 17.1 ± 6%.

In the case of `O=C(/C=C/c1ccc(O)cc1)OCCOc1ccc(-c2cc(=O)c3c(O)cc(O)cc3o2)cc1` [Compound 4h], on BACE1, the inhibition at 10 µM turned out to be 36 ± 4.2%.

On to `O=C(/C=C/c1ccc(O)cc1)OCCOCCOc1ccc(-c2cc(=O)c3c(O)cc(O)cc3o2)cc1` [Compound 4i], for which the inhibition at 10 µM at BACE1 came out at 37 ± 8.6%.

The term IC50 denotes the midpoint of a concentration-inhibition curve. `O=C(/C=C/c1ccc(O)cc1)OCCOc1c(-c2ccc(O)c(O)c2)oc2cc(O)cc(O)c2c1=O` [Compound 4j, 2-((2-(3,4-dihydroxyphenyl)-5,7-dihydroxy-4-oxo-4H-chromen-3-yl)oxy)ethyl(E)-3-(4-hydroxyphenyl)acrylate]: at BACE1, the IC50 amounted to 6.78 ± 0.83 µM and the inhibition at 10 µM turned out to be 59.2 ± 6.3%.

Turning to `O=C(/C=C/c1ccc(O)cc1)OCCOc1ccc2oc(-c3ccc(O)c(O)c3)cc(=O)c2c1` [Compound 4k], at BACE1, the IC50 was 12.9 ± 1.14 µM and the inhibition at 10 µM amounted to 60.6 ± 5.3%.

As to `O=C(/C=C/c1ccc(O)cc1)OCCCOc1cc(O)c2c(=O)cc(-c3ccc(O)c(O)c3)oc2c1` [Compound 5a, (E)-3-((2-(3,4-dihydroxyphenyl)-5-hydroxy-4-oxo-4H-chromen-7-yl)oxy)propyl 3-(4-hydroxyphenyl)acrylate], on BACE1, half-maximal inhibition (IC50) was put at 5.26 ± 0.72 µM and the inhibition at 10 µM turned out to be 81.4 ± 3.8%.

Consider `O=C(/C=C/c1ccc(O)cc1)OCCCCOc1cc(O)c2c(=O)cc(-c3ccc(O)c(O)c3)oc2c1` [Compound 5b, (E)-4-((2-(3,4-dihydroxyphenyl)-5-hydroxy-4-oxo-4H-chromen-7-yl)oxy)butyl 3-(4-hydroxyphenyl)acrylate], for which, at BACE1, the IC50 worked out at 10.4 ± 1.02 µM and the inhibition at 10 µM turned out to be 68.1 ± 5.8%.

Consider `O=C(/C=C/c1ccc(O)cc1)OCCCCCOc1cc(O)c2c(=O)cc(-c3ccc(O)c(O)c3)oc2c1` [Compound 5c, (E)-5-((2-(3,4-dihydroxyphenyl)-5-hydroxy-4-oxo-4H-chromen-7-yl)oxy)pentyl 3-(4-hydroxyphenyl)acrylate], for which, at BACE1, the IC50 was 20.6 ± 1.44 µM and the inhibition at 10 µM is 62.6 ± 6.4%.

As to `O=C(/C=C/c1ccc(O)cc1)OCCCCCCOc1cc(O)c2c(=O)cc(-c3ccc(O)c(O)c3)oc2c1` [Compound 5d, (E)-6-((2-(3,4-dihydroxyphenyl)-5-hydroxy-4-oxo-4H-chromen-7-yl)oxy)hexyl 3-(4-hydroxyphenyl)acrylate], the inhibition at 10 µM at BACE1 amounted to 42.4 ± 3.2%.

`O=C(/C=C/c1ccc(O)cc1)OCCCCCCCCOc1cc(O)c2c(=O)cc(-c3ccc(O)c(O)c3)oc2c1` [Compound 5e, (E)-8-((2-(3,4-dihydroxyphenyl)-5-hydroxy-4-oxo-4H-chromen-7-yl)oxy)octyl 3-(4-hydroxyphenyl)acrylate]: the inhibition at 10 µM at BACE1 is 36.1 ± 2.6%.

`O=C(/C=C/c1ccc(O)cc1)OCCCCCCCCCCOc1cc(O)c2c(=O)cc(-c3ccc(O)c(O)c3)oc2c1` [Compound 5f, (E)-10-((2-(3,4-dihydroxyphenyl)-5-hydroxy-4-oxo-4H-chromen-7-yl)oxy)decyl 3-(4-hydroxyphenyl)acrylate]: at BACE1, the IC50 was 27.8 ± 1.34 µM and the inhibition at 10 µM came to 58.2 ± 3.3%.

`O=C(/C=C/c1ccc(O)cc1)Oc1cc(O)c2c(=O)cc(-c3ccc(O)c(O)c3)oc2c1` [Compound 5g] gave an IC50 at 24 h in the data set “MTT cytotoxicity assay” (setting [1]) of 4.21 µM. Further, at BACE1, the inhibition at 10 µM was 41.4 ± 4.4%.

As for `O=C(/C=C/c1ccc(O)cc1)OCCOc1cc(O)c2c(=O)cc(-c3ccccc3)oc2c1` [Compound 6], the IC50 at 24 h in the data set “MTT cytotoxicity assay” (setting [1]) was 28.3 µM. Besides, the inhibition at 10 µM on BACE1 was determined as 20.5 ± 4.4%.

Take `O=C(C=Cc1ccccc1)OCCOc1cc(O)c2c(=O)cc(-c3ccc(O)c(O)c3)oc2c1` [Compound 7a, 2-((2-(3,4-dihydroxyphenyl)-5-hydroxy-4-oxo-4H-chromen-7-yl)oxy)ethyl cinnamate]: the half-maximal inhibitory concentration (IC50) at 24 h in “MTT cytotoxicity assay” (setting [1]) is more than 100 µM. Further, on BACE1, half-maximal inhibition (IC50) was put at 2.49 ± 0.32 µM and the inhibition at 10 µM was found to be 57.5 ± 7.5%.

Turning to `O=C(/C=C/c1ccc(O)c(O)c1)OCCOc1cc(O)c2c(=O)cc(-c3ccc(O)c(O)c3)oc2c1` [Compound 7d], in “MTT cytotoxicity assay” (HEK293 cells (method text: HEK293T cells)), the IC50 at 24 h came to 16.7 µM. This counts as double-digit micromolar.

`O=C(/C=C/c1ccc(F)cc1)OCCOc1cc(O)c2c(=O)cc(-c3ccc(O)c(O)c3)oc2c1` [Compound 7e, (E)-2-((2-(3,4-dihydroxyphenyl)-5-hydroxy-4-oxo-4H-chromen-7-yl)oxy)ethyl 3-(4-fluorophenyl)acrylate] showed an IC50 at 24 h in the data set “MTT cytotoxicity assay” (setting [1]) of 16.8 µM. Moreover, the inhibition at 10 µM at BACE1 stood at 28.5 ± 7.1%.

In “MTT cytotoxicity assay” (setting [1]), `O=C(/C=C/c1ccc(Cl)cc1)OCCOc1cc(O)c2c(=O)cc(-c3ccc(O)c(O)c3)oc2c1` [Compound 7f, (E)-2-((2-(3,4-dihydroxyphenyl)-5-hydroxy-4-oxo-4H-chromen-7-yl)oxy)ethyl 3-(4-chlorophenyl)acrylate] came in with an IC50 at 24 h of 9.97 µM. Besides, the inhibition at 10 µM on BACE1 was found to be 21.3 ± 7.1%.

Turning to `O=C(/C=C/c1ccc([N+](=O)[O-])cc1)OCCOc1cc(O)c2c(=O)cc(-c3ccc(O)c(O)c3)oc2c1` [Compound 7g, (E)-2-((2-(3,4-dihydroxyphenyl)-5-hydroxy-4-oxo-4H-chromen-7-yl)oxy)ethyl 3-(4-nitrophenyl)acrylate], half-maximal inhibition in the data set “MTT cytotoxicity assay” (setting [1]) (IC50 at 24 h) was put at 21.8 µM. Also, at BACE1, the IC50 came out at 0.96 ± 1.55 µM and the inhibition at 10 µM amounted to 73.9 ± 7.1%.

For `CN(C)c1ccc(/C=C/C(=O)OCCOc2cc(O)c3c(=O)cc(-c4ccc(O)c(O)c4)oc3c2)cc1` [Compound 7h, (E)-2-((2-(3,4-dihydroxyphenyl)-5-hydroxy-4-oxo-4H-chromen-7-yl)oxy)ethyl 3-(4-(dimethylamino)phenyl)acrylate], the IC50 at 24 h in the data set “MTT cytotoxicity assay” (setting [1]) was more than 100 µM. Besides, at BACE1, the IC50 was 6.58 ± 1.16 µM and the inhibition at 10 µM was determined as 53.8 ± 4.4%.

In the data set “MTT cytotoxicity assay” (setting [1]), `CC(C)(C)c1ccc(/C=C/C(=O)OCCOc2cc(O)c3c(=O)cc(-c4ccc(O)c(O)c4)oc3c2)cc1` [Compound 7j, (E)-2-((2-(3,4-dihydroxyphenyl)-5-hydroxy-4-oxo-4H-chromen-7-yl)oxy)ethyl 3-(4-(tert-butyl)phenyl)acrylate] registered an IC50 at 24 h of 20.3 µM. Also, at BACE1, the inhibition at 10 µM came out at 37.6 ± 4.4%.

In “MTT cytotoxicity assay” (setting [1]), `O=C(/C=C/c1ccoc1)OCCOc1cc(O)c2c(=O)cc(-c3ccc(O)c(O)c3)oc2c1` [Compound 7l, (E)-2-((2-(3,4-dihydroxyphenyl)-5-hydroxy-4-oxo-4H-chromen-7-yl)oxy)ethyl 3-(furan-3-yl)acrylate] came in with an IC50 at 24 h of 9.51 µM. In addition, at BACE1, the 50% inhibitory concentration (IC50) is 0.37 ± 0.25 µM and the inhibition at 10 µM was 59.5 ± 7.1%.

In turn, `O=C(/C=C/C1CCCCC1)OCCOc1cc(O)c2c(=O)cc(-c3ccc(O)c(O)c3)oc2c1` [Compound 7m, (E)-2-((2-(3,4-dihydroxyphenyl)-5-hydroxy-4-oxo-4H-chromen-7-yl)oxy)ethyl 3-cyclohexylacrylate] came in with an IC50 at 24 h in “MTT cytotoxicity assay” (setting [1]) of 14.4 µM. In addition, the inhibition at 10 µM on BACE1 was 22.2 ± 7.1%.

Turning to `O=C(OCCOc1cc(O)c2c(=O)cc(-c3ccc(O)c(O)c3)oc2c1)c1ccc(O)cc1` [Compound 7o, 2-((2-(3,4-dihydroxyphenyl)-5-hydroxy-4-oxo-4H-chromen-7-yl)oxy)ethyl 4-hydroxybenzoate], half-maximal inhibition in “MTT cytotoxicity assay” (setting [1]) (IC50 at 24 h) was put at 10.3 µM. Besides, the inhibition at 10 µM at BACE1 worked out at 51.9 ± 1.9%.

In turn, `O=C(CCc1ccc(O)cc1)OCCOc1cc(O)c2c(=O)cc(-c3ccc(O)c(O)c3)oc2c1` [Compound 7p, 2-((2-(3,4-dihydroxyphenyl)-5-hydroxy-4-oxo-4H-chromen-7-yl)oxy)ethyl 3-(4-hydroxyphenyl)propanoate] came in with an IC50 at 24 h in the data set “MTT cytotoxicity assay” (setting [1]) of 90 µM. In addition, at BACE1, it took 4.39 ± 0.34 µM to reach half-maximal inhibition (IC50) and the inhibition at 10 µM worked out at 56.7 ± 4.4%.

In the data set “MTT cytotoxicity assay” (setting [1]), `CC(=O)Oc1ccc(/C=C/C(=O)OCCOc2cc(O)c3c(=O)cc(-c4ccc(O)c(O)c4)oc3c2)cc1` [Compound 7q, (E)-2-((2-(3,4-dihydroxyphenyl)-5-hydroxy-4-oxo-4H-chromen-7-yl)oxy)ethyl 3-(4-acetoxyphenyl)acrylate] registered an IC50 at 24 h of more than 100 µM. In addition, the inhibition at 10 µM at BACE1 turned out to be 25.7 ± 4.6%.
